According to patent publication US20240300924A1, “PYRAZOLE DERIVATIVE COMPOUND, ADHESIVE COMPOSITION COMPRISING SAME, AND ADHESIVE FILM COMPRISING SAME” (LG CHEM, LTD., priority 2021, published 2024):

Assay: Heat resistance of adhesive film sample (change in transmittance ΔT)
Format: physicochemical
Settings: ΔT of transmittance for light of 390 to 450 nm, 80° C. for 500 hours
Excerpt: (§1) Based on 100 parts by weight a solid content except for a solvent in an adhesive composition, 95.4 parts by weight of an adhesive material (AD-701 solid content, LG Chem.), 0.29 part by weight of Compound P1, 0.1 part by weight of an isocyanate-based cross-linking agent (T39M, Soken Chemical & Engineering Co., Ltd.), 0.2 part by weight of a silane-based coupling agent (T-789J, Soken Chemical & Engineering Co., Ltd.), 0.5 part by weight of an antioxidant (Kinox-80, Hannong Chemicals Inc.), 1.5 parts by weight of an antistatic agent (FC-4400, 3M), 2 parts by weight of a hindered amine light stabilizer (Tinuvin 123, BASF SE), and 0.001 part by weight of a catalyst (dibutyltin dilaurate, Sigma-Aldrich) were added to the adhesive composition, the solvent (methyl ethyl ketone, MEK) was added thereto in an amount of 25 parts by weight based on the total parts by weight of the adhesive composition, and a release layer (PET) was coated with the adhesive composition mixed using a mixer (Shaker, SKC 6100, JEIO Tech.) to have a thickness of 22 μm to 23 μm using a knife bar coating apparatus (KP-3000, Kipae E&T Co., Ltd.), thereby preparing an adhesive film. After coating, the release layer was removed, and the adhesive film and a binder resin film (TAC: cellulose triacetate) were sequentially laminated on glass through lamination, thereby producing a sample.
(§2) The maximum absorption wavelength λmax (nm) of each of the adhesive composition and the adhesive film was measured using a UV-vis apparatus (Shimazu UV-3600). In addition, the transmittance of the sample for light with a wavelength of 390 to 450 nm was measured by the UV-vis apparatus (Shimazu UV-3600). Under conditions of light fastness 55,600 lx*48 hours; under conditions of heat resistance 80° C. and for 500 hours; or under conditions of moisture resistance 60° C., 90% RH and for 500 hours, the sample was each exposed, and then the transmittance for light with a wavelength of 390 to 450 nm was re-measured. ΔT was calculated by dividing the value obtained by […] by the transmittance value immediately after the sample was produced, and the results under the evaluation conditions are shown in Table 1. Furthermore, the transmittance of the sample for light in a region with a wavelength of 450 nm or more was measured by the UV-vis apparatus (Shimazu UV-3600). Further, the solubility of Compound p1 to methyl ethyl ketone (MEK) was measured under conditions of 1 atm and room temperature.
(§3) ΔT (%)={(transmittance measured immediately after the optical film was prepared−transmittance re-measured after the optical film is exposed to each condition of light fastness, heat resistance, and moisture resistance)/transmittance measured immediately after the optical film is prepared}×100
(§4) • ◯: ΔT 1.5% or less • Δ: ΔT more than 1.5% and 3% or less • X: ΔT more than 3%
(§5) The light fastness, heat resistance and moisture resistance were evaluated as ◯, Δ, and X based on whether the ΔT was 1.5% or less, more than 1.5% and 3% or less, or more than 3%, respectively.

Row | SMILES | Heat resistance
1 | Cc1ccc(-n2nc(-c3ccccc3)c(C=C3C(=O)N(C4CCCCC4)C(=O)N(C4CCCCC4)C3=O)c2O)c(C)c1 [Compound P7] | ∘
2 | Cc1ccc(-n2nc(C)c(C=C3C(=O)N(C4CCCCC4)C(=O)N(C4CCCCC4)C3=O)c2O)c(C)c1 [Compound P4] | ∘
3 | CC1=NN(c2ccccc2)C(=O)/C1=C\c1c(C)nn(-c2ccccc2)c1O [Comparative Compound Z2, reference compound] | ∘
4 | Cc1ccccc1-n1nc(-c2ccccc2)c(C=C2C(=O)N(C3CCCCC3)C(=O)N(C3CCCCC3)C2=O)c1O [Compound P6] | Δ (ΔT more than 1.5% and 3% or less)
5 | CC(C)c1nn(-c2ccccc2)c(O)c1C=C1C(=O)N(C2CCCCC2)C(=O)N(C2CCCCC2)C1=O [Compound P8] | Δ (ΔT more than 1.5% and 3% or less)

Assay: Maximum absorption wavelength of the adhesive composition (solution), UV-vis
Format: physicochemical
Settings: adhesive composition in MEK; UV-vis apparatus (Shimazu UV-3600)
Excerpt: as §1, §2
(§6) Experiments were performed under the same conditions as in Example 1, except that Compounds P3 to P10, Compound P15 and Comparative Compounds Z1 and Z2 were used instead of Compound P1, respectively, in Example 1, and the experimental results are shown in the following Table 1.

Row | SMILES | λmax (nm) (Solution)
6 | Cc1nn(-c2ccccc2)c(O)c1C=C1C(=O)NC(=O)NC1=O [Comparative Compound Z1, reference compound] | 412
7 | Cc1ccc(-n2nc(-c3ccccc3)c(C=C3C(=O)N(C4CCCCC4)C(=O)N(C4CCCCC4)C3=O)c2O)c(C)c1 [Compound P7] | 399
8 | Cc1ccc(-n2nc(C)c(C=C3C(=O)N(C4CCCCC4)C(=O)N(C4CCCCC4)C3=O)c2O)c(C)c1 [Compound P4] | 403
9 | CC1=NN(c2ccccc2)C(=O)/C1=C\c1c(C)nn(-c2ccccc2)c1O [Comparative Compound Z2, reference compound] | 405
10 | Cc1ccccc1-n1nc(-c2ccccc2)c(C=C2C(=O)N(C3CCCCC3)C(=O)N(C3CCCCC3)C2=O)c1O [Compound P6] | 400
11 | CC(C)c1nn(-c2ccccc2)c(O)c1C=C1C(=O)N(C2CCCCC2)C(=O)N(C2CCCCC2)C1=O [Compound P8] | 406

Assay: Light fastness of adhesive film sample (change in transmittance ΔT)
Format: physicochemical
Settings: ΔT of transmittance for light of 390 to 450 nm; adhesive film sample with 0.29 part by weight compound; 55,600 lx*48 hours
Excerpt: as §1, §2, §3, §4, §5

Row | SMILES | Light fastness
12 | Cc1ccc(-n2nc(-c3ccccc3)c(C=C3C(=O)N(C4CCCCC4)C(=O)N(C4CCCCC4)C3=O)c2O)c(C)c1 [Compound P7] | ∘
13 | Cc1ccc(-n2nc(C)c(C=C3C(=O)N(C4CCCCC4)C(=O)N(C4CCCCC4)C3=O)c2O)c(C)c1 [Compound P4] | ∘
14 | CC1=NN(c2ccccc2)C(=O)/C1=C\c1c(C)nn(-c2ccccc2)c1O [Comparative Compound Z2, reference compound] | ∘
15 | Cc1ccccc1-n1nc(-c2ccccc2)c(C=C2C(=O)N(C3CCCCC3)C(=O)N(C3CCCCC3)C2=O)c1O [Compound P6] | ∘
16 | CC(C)c1nn(-c2ccccc2)c(O)c1C=C1C(=O)N(C2CCCCC2)C(=O)N(C2CCCCC2)C1=O [Compound P8] | ∘

Assay: Moisture resistance of adhesive film sample (change in transmittance ΔT)
Format: physicochemical
Settings: ΔT of transmittance for light of 390 to 450 nm, 60° C., 90% RH for 500 hours
Excerpt: as §1, §2, §3, §4, §5

Row | SMILES | Moisture resistance
17 | Cc1nn(-c2ccccc2)c(O)c1C=C1C(=O)NC(=O)NC1=O [Comparative Compound Z1, reference compound] | Δ (ΔT more than 1.5% and 3% or less)
18 | Cc1ccc(-n2nc(-c3ccccc3)c(C=C3C(=O)N(C4CCCCC4)C(=O)N(C4CCCCC4)C3=O)c2O)c(C)c1 [Compound P7] | ∘
19 | Cc1ccc(-n2nc(C)c(C=C3C(=O)N(C4CCCCC4)C(=O)N(C4CCCCC4)C3=O)c2O)c(C)c1 [Compound P4] | ∘
20 | CC1=NN(c2ccccc2)C(=O)/C1=C\c1c(C)nn(-c2ccccc2)c1O [Comparative Compound Z2, reference compound] | ∘
21 | Cc1ccccc1-n1nc(-c2ccccc2)c(C=C2C(=O)N(C3CCCCC3)C(=O)N(C3CCCCC3)C2=O)c1O [Compound P6] | ∘
22 | CC(C)c1nn(-c2ccccc2)c(O)c1C=C1C(=O)N(C2CCCCC2)C(=O)N(C2CCCCC2)C1=O [Compound P8] | ∘

Assay: Maximum absorption wavelength of the adhesive film (thin film), UV-vis
Format: physicochemical
Settings: adhesive film 22 μm to 23 μm; UV-vis apparatus (Shimazu UV-3600)
Excerpt: as §1, §2, §6

Row | SMILES | λmax (nm) (Thin film)
23 | Cc1nn(-c2ccccc2)c(O)c1C=C1C(=O)NC(=O)NC1=O [Comparative Compound Z1, reference compound] | 425
24 | Cc1ccc(-n2nc(-c3ccccc3)c(C=C3C(=O)N(C4CCCCC4)C(=O)N(C4CCCCC4)C3=O)c2O)c(C)c1 [Compound P7] | 399
25 | Cc1ccc(-n2nc(C)c(C=C3C(=O)N(C4CCCCC4)C(=O)N(C4CCCCC4)C3=O)c2O)c(C)c1 [Compound P4] | 399
26 | CC1=NN(c2ccccc2)C(=O)/C1=C\c1c(C)nn(-c2ccccc2)c1O [Comparative Compound Z2, reference compound] | 403
27 | Cc1ccccc1-n1nc(-c2ccccc2)c(C=C2C(=O)N(C3CCCCC3)C(=O)N(C3CCCCC3)C2=O)c1O [Compound P6] | 400
28 | CC(C)c1nn(-c2ccccc2)c(O)c1C=C1C(=O)N(C2CCCCC2)C(=O)N(C2CCCCC2)C1=O [Compound P8] | 408

Assay: Wavelength compatibility (transmittance of sample in region with 450 nm or more)
Format: physicochemical
Settings: transmittance of adhesive film sample in region with wavelength of 450 nm or more
Description: as §2
• ◯: transmittance of 90% or more in region with 450 nm or more • Δ: transmittance of 80% or more in region with 450 nm or more • X: transmittance of 80% or less in region with 450 nm or more
The wavelength compatibility was evaluated as ◯, Δ, and X based on whether the transmittance in a region with 450 nm or more was 90% or more, 80% or more, or 80% or less, respectively.

Row | SMILES | Wavelength compatibility
29 | Cc1nn(-c2ccccc2)c(O)c1C=C1C(=O)NC(=O)NC1=O [Comparative Compound Z1, reference compound] | Δ (transmittance of 80% or more in region with 450 nm or more)
30 | Cc1ccc(-n2nc(-c3ccccc3)c(C=C3C(=O)N(C4CCCCC4)C(=O)N(C4CCCCC4)C3=O)c2O)c(C)c1 [Compound P7] | ∘
31 | Cc1ccc(-n2nc(C)c(C=C3C(=O)N(C4CCCCC4)C(=O)N(C4CCCCC4)C3=O)c2O)c(C)c1 [Compound P4] | ∘
32 | Cc1ccccc1-n1nc(-c2ccccc2)c(C=C2C(=O)N(C3CCCCC3)C(=O)N(C3CCCCC3)C2=O)c1O [Compound P6] | ∘
33 | CC(C)c1nn(-c2ccccc2)c(O)c1C=C1C(=O)N(C2CCCCC2)C(=O)N(C2CCCCC2)C1=O [Compound P8] | ∘

Same assay, conditions: verbal assessment

Row | SMILES | wavelength compatibility (in words)
34 | CC1=NN(c2ccccc2)C(=O)/C1=C\c1c(C)nn(-c2ccccc2)c1O [Comparative Compound Z2, reference compound] | remarkably deteriorates compared to Examples 1 to 10

Assay: Solubility of compound in methyl ethyl ketone (MEK)
Format: physicochemical
Settings: solubility to 10 g of methyl ethyl ketone; 1 atm and room temperature
Description: as §2
• ◯: 0.3 wt. % or more • Δ: more than 0.1 wt. % and less than 0.3 wt. % • X: 0.1 wt. % or less

Row | SMILES | MEK solubility
35 | Cc1ccc(-n2nc(-c3ccccc3)c(C=C3C(=O)N(C4CCCCC4)C(=O)N(C4CCCCC4)C3=O)c2O)c(C)c1 [Compound P7] | ∘
36 | Cc1ccc(-n2nc(C)c(C=C3C(=O)N(C4CCCCC4)C(=O)N(C4CCCCC4)C3=O)c2O)c(C)c1 [Compound P4] | ∘
37 | CC1=NN(c2ccccc2)C(=O)/C1=C\c1c(C)nn(-c2ccccc2)c1O [Comparative Compound Z2, reference compound] | ∘
38 | Cc1ccccc1-n1nc(-c2ccccc2)c(C=C2C(=O)N(C3CCCCC3)C(=O)N(C3CCCCC3)C2=O)c1O [Compound P6] | Δ (more than 0.1 wt. % and less than 0.3 wt. %)
39 | CC(C)c1nn(-c2ccccc2)c(O)c1C=C1C(=O)N(C2CCCCC2)C(=O)N(C2CCCCC2)C1=O [Compound P8] | Δ (more than 0.1 wt. % and less than 0.3 wt. %)
